How the values were obtained:
JAK2 = JAK2 (Homo sapiens (Human), UniProt O60674); assay: Jak Biochemical HTRF Assay (JAK2); settings: JAK2 IC50, recombinant GST-tagged catalytic domain, [ATP] 8.5 μM, unit not given (compound concentrations tested given in nM)
JAK1 = JAK1 (Homo sapiens (Human), UniProt P23458); assay: Jak Biochemical HTRF Assay (JAK1); settings: recombinant GST-tagged catalytic domain, [ATP] 31.8 μM, unit not given (compound concentrations tested given in nM)
Source text: Jak Biochemical HTRF Assay Protocol
Subsequent reagent additions employed an Agilent Bravo.

Sequence of JAK2 (O60674 849-1124): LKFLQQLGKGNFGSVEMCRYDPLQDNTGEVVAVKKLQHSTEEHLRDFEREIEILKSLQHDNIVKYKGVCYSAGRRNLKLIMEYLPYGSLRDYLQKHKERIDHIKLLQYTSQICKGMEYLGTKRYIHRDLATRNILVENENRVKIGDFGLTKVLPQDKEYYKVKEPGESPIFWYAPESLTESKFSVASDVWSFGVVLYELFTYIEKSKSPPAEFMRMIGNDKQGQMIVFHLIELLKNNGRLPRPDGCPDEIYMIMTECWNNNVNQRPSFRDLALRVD
Sequence of JAK1 (P23458 875-1153): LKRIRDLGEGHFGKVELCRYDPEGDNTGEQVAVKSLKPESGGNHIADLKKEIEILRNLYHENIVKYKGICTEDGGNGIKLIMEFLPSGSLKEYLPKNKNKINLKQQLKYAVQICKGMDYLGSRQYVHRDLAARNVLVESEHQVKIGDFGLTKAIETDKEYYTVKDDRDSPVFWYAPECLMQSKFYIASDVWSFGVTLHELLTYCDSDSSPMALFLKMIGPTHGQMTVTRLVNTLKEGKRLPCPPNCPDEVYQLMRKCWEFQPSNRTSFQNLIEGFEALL

Row | Compound | IC50 (JAK2) | IC50 (JAK1)
1 | CC(C)(C)S(=O)(=O)c1ccc(Nc2nn([C@@H]3COCCC[C@@H]3C#N)c3cc[nH]c(=O)c23)cc1 (single isomer, unassigned) [Example 1-25, (3S,4S or 3R,4R)-3-(3-{[4-(tert-butylsulfonyl)phenyl]amino}-4-oxo-4,5-dihydro-1H-pyrazolo[4,3-c]pyridin-1-yl)oxepane-4-carbonitrile] | 3.43 nM | 2.27 nM
2 | CC1c2cc(Nc3nn([C@H]4COCC[C@@H]4C#N)c4cc[nH]c(=O)c34)ccc2S(=O)(=O)N1C (single isomer, unassigned) [Example 1-34, (3R,4S)-3-(3-(((R or S)-2,3-dimethyl-1,1-dioxido-2,3-dihydrobenzo[d]isothiazol-5-yl)amino)-4-oxo-4,5-dihydro-1H-pyrazolo[4,3-c]pyridin-1-yl)tetrahydro-2H-pyran-4-carbonitrile] | 1.18 nM | 0.03 nM
3 | CN1CCN(C(c2ccc(Nc3nn([C@H]4COCC[C@@H]4C#N)c4cc[nH]c(=O)c34)cc2)C(F)(F)F)CC1 (single isomer, unassigned) [Example 1-36, (3R,4S)-3-[4-oxo-3-({4-[(1R or 1S)-2,2,2-trifluoro-1-(4-methylpiperazin-1-yl)ethyl]phenyl}amino)-4,5-dihydro-1H-pyrazolo[4,3-c]pyridin-1-yl]tetrahydro-2H-pyran-4-carbonitrile] | 0.27 nM | 0.24 nM
4 | CN1CCN(C(c2ccc(Nc3nn([C@H]4COCC[C@@H]4C#N)c4cc[nH]c(=O)c34)cc2)C(F)(F)F)CC1 (single isomer, unassigned) [Example 1-37, (3R,4S)-3-[4-oxo-3-({4-[(1S or 1R)-2,2,2-trifluoro-1-(4-methylpiperazin-1-yl)ethyl]phenyl}amino)-4,5-dihydro-1H-pyrazolo[4,3-c]pyridin-1-yl]tetrahydro-2H-pyran-4-carbonitrile] | 0.33 nM | 0.22 nM
5 | CC(C)(C)OC(=O)CNC(c1ccc(Nc2nn([C@H]3COCC[C@@H]3C#N)c3cc[nH]c(=O)c23)cc1)C(F)(F)F (single isomer, unassigned) [Example 1-40, tert-butyl N-{[(1R or 1S)-1-[4-({1-[(3R,4S)-4-cyanotetrahydro-2H-pyran-3-yl]-4-oxo-4,5-dihydro-1H-pyrazolo[4,3-c]pyridin-3-yl}amino)phenyl]-2,2,2-trifluoroethyl}glycinate] | 0.78 nM | 0.16 nM
6 | CC(C)(C)OC(=O)CNC(c1ccc(Nc2nn([C@H]3COCC[C@@H]3C#N)c3cc[nH]c(=O)c23)cc1)C(F)(F)F (single isomer, unassigned) [Example 1-41, tert-butyl N-{(1S or 1R)-1-[4-({1-[(3R,4S)-4-cyanotetrahydro-2H-pyran-3-yl]-4-oxo-4,5-dihydro-1H-pyrazolo[4,3-c]pyridin-3-yl}amino)phenyl]-2,2,2-trifluoroethyl}glycinate] | 0.6 nM | 0.14 nM
7 | CC(c1ccc(Nc2nn([C@H]3COCC[C@@H]3C#N)c3cc[nH]c(=O)c23)cc1)n1nccn1 (single isomer, unassigned) [Example 1-45, (3R,4S)-3-[4-oxo-3-({4-[(1R or 1S)-1-(2H-1,2,3-triazol-2-yl)ethyl]phenyl}amino)-4,5-dihydro-1H-pyrazolo[4,3-c]pyridin-1-yl]tetrahydro-2H-pyran-4-carbonitrile] | 0.21 nM | 0.14 nM
8 | CC1(C)CC1NC(c1ccc(Nc2nn([C@H]3COCC[C@@H]3C#N)c3cc[nH]c(=O)c23)cc1)C(F)(F)F (single isomer, unassigned) [Example 1-46, (3R,4S)-3-{3-[(4S or 4R-{1S or 1R-[(2,2-dimethylcyclopropyl)amino]-2,2,2-trifluoroethyl}phenyl)amino]-4-oxo-4,5-dihydro-1H-pyrazolo[4,3-c]pyridin-1-yl}tetrahydro-2H-pyran-4-carbonitrile] | 0.21 nM | 0.14 nM
9 | CC1(C)CC1NC(c1ccc(Nc2nn([C@H]3COCC[C@@H]3C#N)c3cc[nH]c(=O)c23)cc1)C(F)(F)F (single isomer, unassigned) [Example 1-47, (3R,4S)-3-{3-[(4S or 4R-{1S or 1R-[(2,2-dimethylcyclopropyl)amino]-2,2,2-trifluoroethyl}phenyl)amino]-4-oxo-4,5-dihydro-1H-pyrazolo[4,3-c]pyridin-1-yl}tetrahydro-2H-pyran-4-carbonitrile] | 0.43 nM | 0.27 nM
10 | CC1(C)CC1NC(c1ccc(Nc2nn([C@H]3COCC[C@@H]3C#N)c3cc[nH]c(=O)c23)cc1)C(F)(F)F (single isomer, unassigned) [Example 1-48, (3R,4S)-3-{3-[(4S or 4R-{1S or 1R-[(2,2-dimethylcyclopropyl)amino]-2,2,2-trifluoroethyl}phenyl)amino]-4-oxo-4,5-dihydro-1H-pyrazolo[4,3-c]pyridin-1-yl}tetrahydro-2H-pyran-4-carbonitrile] | 1.73 nM | 0.65 nM
11 | CC1(C)CC1NC(c1ccc(Nc2nn([C@H]3COCC[C@@H]3C#N)c3cc[nH]c(=O)c23)cc1)C(F)(F)F (single isomer, unassigned) [Example 1-49, (3R,4S)-3-{3-[(4S or 4R-{1S or 1R-[(2,2-dimethylcyclopropyl)amino]-2,2,2-trifluoroethyl}phenyl)amino]-4-oxo-4,5-dihydro-1H-pyrazolo[4,3-c]pyridin-1-yl}tetrahydro-2H-pyran-4-carbonitrile] | 0.3 nM | 0.18 nM

The next compounds have a lower IC50 (JAK2) than those just listed; values first:

Row | IC50 (JAK2) | IC50 (JAK1) | Compound
12 | 0.18 nM | 0.12 nM | CC(c1ccc(Nc2nn([C@H]3COCC[C@@H]3C#N)c3cc[nH]c(=O)c23)cc1)n1nccn1 (single isomer, unassigned) [Example 1-44, (3R,4S)-3-[4-oxo-3-({4-[(1S or 1R)-1-(2H-1,2,3-triazol-2-yl)ethyl]phenyl}amino)-4,5-dihydro-1H-pyrazolo[4,3-c]pyridin-1-yl]tetrahydro-2H-pyran-4-carbonitrile]
13 | 0.17 nM | 0.13 nM | N#C[C@H]1CCOC[C@@H]1n1nc(Nc2ccc(C(N3CCNCC3)C(F)(F)F)cc2)c2c(=O)[nH]ccc21 (single isomer, unassigned) [Example 1-39, (3R,4S)-3-[4-oxo-3-({4-[(1S or 1R)-2,2,2-trifluoro-1-piperazin-1-ylethyl]phenyl}amino)-4,5-dihydro-1H-pyrazolo[4,5-c]pyridin-1-yl]tetrahydro-2H-pyran-4-carbonitrile]
14 | 0.14 nM | 0.07 nM | CCNC(c1ccc(Nc2nn([C@H]3COCC[C@@H]3C#N)c3cc[nH]c(=O)c23)cc1)C(F)(F)F (single isomer, unassigned) [Example 1-54, (3R,4S)-3-[3-({4-[(1R or 1S)-1-(ethylamino)-2,2,2-trifluoroethyl]phenyl}amino)-4-oxo-4,5-dihydro-1H-pyrazolo[4,3-c]pyridin-1-yl]tetrahydro-2H-pyran-4-carbonitrile]
15 | 0.13 nM | 0.09 nM | N#C[C@H]1CCOC[C@@H]1n1nc(Nc2ccc(C(N3CCNCC3)C(F)(F)F)cc2)c2c(=O)[nH]ccc21 (single isomer, unassigned) [Example 1-38, (3R,4S)-3-[4-oxo-3-({4-[(1R or 1S)-2,2,2-trifluoro-1-piperazin-1-ylethyl]phenyl}amino)-4,5-dihydro-1H-pyrazolo[4,3-c]pyridin-1-yl]tetrahydro-2H-pyran-4-carbonitrile]
16 | 0.13 nM | 0.05 nM | N#C[C@H]1CCOC[C@@H]1n1nc(Nc2ccc(C(N3CCCC3)C(F)(F)F)cc2)c2c(=O)[nH]ccc21 (single isomer, unassigned) [Example 1-42, (3R,4S)-3-[4-oxo-3-({4-[(1R or 1S)-2,2,2-trifluoro-1-pyrrolidin-1-ylethyl]phenyl}amino)-4,5-dihydro-1H-pyrazolo[4,3-c]pyridin-1-yl]tetrahydro-2H-pyran-4-carbonitrile]
17 | 0.11 nM | 0.08 nM | CC(C)NC(c1ccc(Nc2nn([C@H]3COCC[C@@H]3C#N)c3cc[nH]c(=O)c23)cc1)C(F)(F)F (single isomer, unassigned) [Example 1-52, (3R,4S)-3-{4-oxo-3-[(4-{(1R or 1S)-2,2,2-trifluoro-1-[(1-methylethyl)amino]ethyl}phenyl)amino]-4,5-dihydro-1H-pyrazolo[4,3-c]pyridin-1-yl}tetrahydro-2H-pyran-4-carbonitrile]
18 | 0.09 nM | 0.04 nM | COC(C)(c1ccc(Nc2nn([C@H]3COCC[C@@H]3C#N)c3cc[nH]c(=O)c23)cc1)C(F)(F)F (single isomer, unassigned) [Example 1-33, (3R,4S)-3-(4-oxo-3-((4-((S or R)-1,1,1-trifluoro-2-methoxypropan-2-yl)phenyl)amino)-4,5-dihydro-1H-pyrazolo[4,3-c]pyridin-1-yl)tetrahydro-2H-pyran-4-carbonitrile]
19 | 0.09 nM | 0.08 nM | CC(C)NC(c1ccc(Nc2nn([C@H]3COCC[C@@H]3C#N)c3cc[nH]c(=O)c23)cc1)C(F)(F)F (single isomer, unassigned) [Example 1-53, (3R,4S)-3-{4-oxo-3-[(4-{[1S or 1R)-2,2,2-trifluoro-[(1-methylethyl)amino]ethyl}phenyl)amino]-4,5-dihydro-1H-pyrazolo[4,3-c]pyridin-1-yl}tetrahydro-2H-pyran-4-carbonitrile]
20 | 0.08 nM | 0.04 nM | N#C[C@H]1CCOC[C@@H]1n1nc(Nc2ccc(C(N3CCCC3)C(F)(F)F)cc2)c2c(=O)[nH]ccc21 (single isomer, unassigned) [Example 1-43, (3R,4S)-3-[4-oxo-3-({4-[(1S or 1R)-2,2,2-trifluoro-1-pyrrolidin-1-ylethyl]phenyl}amino)-4,5-dihydro-1H-pyrazolo[4,3-c]pyridin-1-yl]tetrahydro-2H-pyran-4-carbonitrile]

Reference: patent US9957265B2, “N-(2-cyano heterocyclyl) pyrazolo pyridones as janus kinase inhibitors” (Merck Sharp & Dohme Corp., priority 2013, dated 2018)
